{"source": "patent US10968190B2", "about": "“Processes for preparing oxathiazin-like compounds” (GEISTLICH PHARMA AG, priority 2014, dated 2021)", "key": {"MiaPaca2 tumor": {"system": "MiaPaca2 tumor", "assay": "MiaPaca2 subcutaneous tumor model in nude mice", "type": "in vivo, nude mice (NMRI-Foxn1 nu/nu)", "conditions": "500 mg/kg i.p. on alternating days"}, "[1]": {"assay": "Half-life in human fresh blood in vitro by GC", "type": "in vitro ADME", "conditions": "37° C."}, "Staphylococcus aureus": {"system": "Staphylococcus aureus", "assay": "Antibacterial activity against Staphylococcus aureus", "type": "cell-based"}, "[2]": {"system": "multicellular pancreatic tumor (Panc Tul or BxPC-3) spheroids", "assay": "Pancreatic stem cell-like multicellular spheroid toxicity assay", "type": "cell-based", "conditions": "taurolidine 500 μM, compound 2250 1000 μM, 48 hours", "excerpt": "Multicellular spheroids are composed of tumor cells growing in a 3-dimensional structure stimulating the growth, micro-environmental conditions and stem cell-like characteristics of real tumors. The multicellular tumor spheroid (MCTS) model compensates for many of the deficiencies seen in monolayer cultures. Spheroids on the scale of 200-500 μm develop chemical gradients of oxygen, nutrients, and catabolites, while having morphological and functional features similar to tumors. Therefore, assays utilizing the MCTS model allow for the assessment of drug penetration and are more predictive of in vivo success compared with monolayer cultures. MCTS assays are a tumor model system of intermediate complexity between standard monolayer and tumors in vivo.\nPancreatic tumor cells (Panc Tu-1, BxPC-3, Mia Paca-2, ASPC1) and pancreatic primary tumor cells (Bo80) were seeded in ultra-low adhesion plates in special stem cell media.\nPancreatic tumor cells (ASPC1, Mia Paca-2, Panc Tul, BxPC-3) and pancreatic primary tumor cells (Bo80) were raised in monolayer culture before seeding in ultra low adhesion plates under conditions of special stem cell media to form multicellular spheroids and passed through a cell strainer to exclude aggregates. […]"}, "[3]": {"assay": "Toxicity in mice during the tumor study", "conditions": "500 mg/kg i.p. on alternating days", "quoted_text": "1×10^7 tumor cells (PancTu-I and MiaPaca 2) were injected subcutaneously into the flank.\nTumors were grown to a size of 200 mm^3 before the treatment was started. Mice were treated on alternating days with 500 mg/kg*body weight (BW)."}, "[4]": {"system": "pancreas tumor cells (AsPC-1, BxPC-3 and HCT-116)", "assay": "Growth inhibition of pancreas tumor cells", "type": "cell-based", "conditions": "read-out: half-maximal concentration of growth inhibition", "description": "The growth of pancreas tumor cells (AsPC-1, BxPC-3 and HCT-116) was inhibited by compound 2250 with a half-maximal concentration of 300 μM, which is considerably lower than the concentration needed to elicit cytotoxicity."}, "PancTu I tumor": {"system": "PancTu I tumor", "assay": "PancTu I subcutaneous tumor model in nude mice", "type": "in vivo, nude mice (NMRI-Foxn1 nu/nu)", "conditions": "500 mg/kg i.p. on alternating days"}, "[5]": {"system": "cancers identified herein", "assay": "Administration to patients having cancers (Example 5)", "type": "in vivo", "conditions": "Example 5, present tense", "description": "Each of these compounds is administered with Vitamin D3, a derivative, metabolite or analog thereof and the combination is found to increase the anti-tumor effects of the compounds."}, "[6]": {"system": "pancreatic primary tumors (Bo 73)", "assay": "Xenograft model of pancreatic primary tumors Bo 73", "type": "in vivo", "conditions": "Bo 73, observed for 15 days; differences not statistically relevant", "excerpt": "(§1) However, the differences in tumor volumes were not statistically relevant, likely due to the short duration of the study and the slow growth rate of the tumors."}, "[7]": {"assay": "Water solubility and isotonicity", "type": "physicochemical", "excerpt": "In certain embodiments, no PVP necessary to increase the solubility. For example, a 3.2% solution 2250 is isotonic. This is an unexpected advantage over taurolidine."}, "[8]": {"system": "MRSA lines 188, 189, 193, 194 and 195", "assay": "Punch plate tests against MRSA", "type": "cell-based"}, "[9]": {"system": "tumor cell lines AsPC-1, BxPC-3 and HCT-116", "assay": "Inhibition of cell viability in tumor cell lines", "type": "cell-based", "conditions": "read-out: Half-maximal inhibition of cell viability", "excerpt": "These effects are similar to those observed in glioma cell line LN-229. The induction of cell death was due to apoptosis and necrosis (most likely necroptosis). […] Thus, there is a redox-directed mechanism of action."}, "[10]": {"system": "pancreatic primary tumors (Bo 70)", "assay": "Xenograft model of pancreatic primary tumors Bo 70", "type": "in vivo", "conditions": "Bo 70, observed for 23 days", "excerpt": "as §1"}, "[11]": {"system": "human glioma cell line LN-229", "assay": "Cytotoxicity assay in LN-229 cells (crystal violet)", "type": "cell-based", "conditions": "for OD (absorbance at 540 nm; high values = high cell viability): 24 h; for EC50: Homo sapiens, LN-229, 24 h", "description": "Cell lines: The human glioma cell line LN-229 was used as described previously (Rodak et al. 2005) as well as the human colon adenocarcinoma cell line SW480.\nCytotoxicity assay: Dissociated LN-229 cells were seeded into 96-well plates at a density of 10^4 cells per well in 100 μl of culture medium. […] Triplicate cultures were prepared for each sample. After 24 h of incubation at […], the remaining adherent viable cells were stained using crystal violet as described (Rodack et al. 2005). Cell viability was determined by measuring the absorbancy at 540 nm. The results are expressed as killing rate given by the difference between 100% of cells and percentage of cells surviving. EC50 values correspond to the concentration inducing 50% cell death."}, "Escherichia coli": {"system": "Escherichia coli", "assay": "Antibacterial activity against Escherichia coli", "type": "cell-based"}}, "note": "Where two headings read alike, the source gives them in different places."}
{"compound": "O=S1(=O)CCOCN1", "note": "[compound 2250, Tetrahydro1,4,5-oxathiazin-4-dioxide]", "values": [{"measurement": "decrease of MiaPaca2 tumor volume compared to control", "setting": "MiaPaca2 tumor", "value": "over 3 fold"}, {"measurement": "concentration in human fresh blood", "setting": "[1]; After 1 hour", "value": 50.6, "unit": "ppm"}, {"measurement": "concentration in human fresh blood", "setting": "[1]; After 2 hours", "value": 47.6, "unit": "ppm"}, {"measurement": "concentration in human fresh blood", "setting": "[1]; After 20 hours", "value": "38.6-39.0 ppm"}, {"measurement": "concentration in human fresh blood", "setting": "[1]; Baseline Value", "value": 49.0, "unit": "ppm"}, {"measurement": "half-life at 49 ppm", "setting": "[1]; human fresh blood, in vitro", "value": "> 24", "unit": "h"}, {"measurement": "antibacterial activity relative to Taurultam", "setting": "Staphylococcus aureus; Staph. aureus", "value": "about double as high as Taurultam"}, {"measurement": "antibacterial activity", "setting": "Staphylococcus aureus; Staphylococcus aureus", "value": "very high level of antibacterial activity"}, {"measurement": "effect on pancreatic stem cell like multicellular spheroid cultures", "setting": "[2]", "value": "antineoplastic effect"}, {"measurement": "toxic effect on the mice during the study", "setting": "[3]", "value": "no toxic effect"}, {"measurement": "IC50", "setting": "[4]", "value": 300, "unit": "µM"}, {"measurement": "decrease of PancTu I tumor volume compared to control", "setting": "PancTu I tumor", "value": "about 2 fold"}, {"measurement": "effectiveness in treating cancers in patients", "setting": "[5]", "value": "effective in treating such cancers"}, {"measurement": "safety for use in patients", "setting": "[5]", "value": "safe for use in patients"}, {"measurement": "relative tumor volume compared to control", "setting": "[6]", "value": "further reduced relative tumor volume compared to control"}, {"measurement": "solubility in water", "setting": "[7]", "value": "very soluble in water"}, {"measurement": "concentration of isotonic solution", "setting": "[7]; no PVP", "value": 3.2, "unit": "%"}, {"measurement": "activity in punch plate tests", "setting": "[8]", "value": "highly active"}, {"measurement": "IC50", "setting": "[9]", "value": "750 to 1000", "unit": "µM"}, {"measurement": "tumor volume compared to control", "setting": "[10]", "value": "significantly reduce tumor volume compared to control"}, {"measurement": "OD (absorbance at 540 nm; high values = high cell viability)", "setting": "[11]; 4 μg/ml", "value": 1.477}, {"measurement": "OD (absorbance at 540 nm; high values = high cell viability)", "setting": "[11]; 8 μg/ml", "value": 1.527}, {"measurement": "OD (absorbance at 540 nm; high values = high cell viability)", "setting": "[11]; 15.5 μg/ml", "value": 1.482}, {"measurement": "OD (absorbance at 540 nm; high values = high cell viability)", "setting": "[11]; 31 μg/ml", "value": 1.482}, {"measurement": "OD (absorbance at 540 nm; high values = high cell viability)", "setting": "[11]; 62.5 μg/ml", "value": 0.372}, {"measurement": "OD (absorbance at 540 nm; high values = high cell viability)", "setting": "[11]; 250 μg/ml", "value": 0.120}, {"measurement": "OD (absorbance at 540 nm; high values = high cell viability)", "setting": "[11]; 500 μg/ml", "value": 0.141}, {"measurement": "OD (absorbance at 540 nm; high values = high cell viability)", "setting": "[11]; 1000 μg/ml", "value": 0.189}, {"measurement": "EC50", "setting": "[11]; read-out: EC50 (concentration inducing 50% cell death), LN-229 cells, 24 h incubation", "value": 45, "unit": "µg/mL"}, {"measurement": "EC50", "setting": "[11]; read-out: half-maximal concentration of inducing cell death EC50", "value": 50, "unit": "µg/mL"}, {"measurement": "antibacterial activity", "setting": "Escherichia coli", "value": "very high level of antibacterial activity"}]}
